Paper PMC5622171 (Nature Communications, 2017)

Assays:
Experiment in all cases: KINOMEscan kinase profiling
Assay type in all cases: binding
[1] = biological target: T1, QSK (Homo sapiens, UniProt Q9Y2K2)
T1 construct: purchased DiscoverX (Ambit Biosciences) KINOMEscan
In short: (§1)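 KINOMEscan profiling followed a published protocol. Kinases whose inhibition exceeded a set cut-off were then tested in a dilution series beginning at 30 µM.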

[2] = biological target: T2, ACVRL1 (Homo sapiens, UniProt P37023); details: read-out: %Inhibition by 10 μM SPA70
T2 construct: purchased DiscoverX (Ambit Biosciences) KINOMEscan
T2 sequence (P37023 22-503): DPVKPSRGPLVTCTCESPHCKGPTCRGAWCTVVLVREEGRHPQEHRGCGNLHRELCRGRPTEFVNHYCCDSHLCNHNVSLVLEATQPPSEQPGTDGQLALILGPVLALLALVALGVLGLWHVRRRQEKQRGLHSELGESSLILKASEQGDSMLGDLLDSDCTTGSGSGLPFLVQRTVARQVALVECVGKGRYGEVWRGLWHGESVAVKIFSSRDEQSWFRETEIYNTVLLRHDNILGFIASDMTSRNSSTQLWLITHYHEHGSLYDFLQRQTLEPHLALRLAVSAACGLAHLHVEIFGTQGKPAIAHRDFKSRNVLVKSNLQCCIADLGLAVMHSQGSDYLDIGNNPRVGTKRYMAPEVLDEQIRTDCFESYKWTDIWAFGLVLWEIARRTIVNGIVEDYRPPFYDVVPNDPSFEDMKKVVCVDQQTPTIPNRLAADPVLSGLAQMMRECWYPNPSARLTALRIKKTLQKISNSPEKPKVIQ
In short: as §1

[3] = biological target: T3, YSK1 (Homo sapiens, UniProt O00506); details: read-out: %Inhibition by 10 μM SPA70
T3 construct: purchased DiscoverX (Ambit Biosciences) KINOMEscan
T3 sequence (O00506 whole entry): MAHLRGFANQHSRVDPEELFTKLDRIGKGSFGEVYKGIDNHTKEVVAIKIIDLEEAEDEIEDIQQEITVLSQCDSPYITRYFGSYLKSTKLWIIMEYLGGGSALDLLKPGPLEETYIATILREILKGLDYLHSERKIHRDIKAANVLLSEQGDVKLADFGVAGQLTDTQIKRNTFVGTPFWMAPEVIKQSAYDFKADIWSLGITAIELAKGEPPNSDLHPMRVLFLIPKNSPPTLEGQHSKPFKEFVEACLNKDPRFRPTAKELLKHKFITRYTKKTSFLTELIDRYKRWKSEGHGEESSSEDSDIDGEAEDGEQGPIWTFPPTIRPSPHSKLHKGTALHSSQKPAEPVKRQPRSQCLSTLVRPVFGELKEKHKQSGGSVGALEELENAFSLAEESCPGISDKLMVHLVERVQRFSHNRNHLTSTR
In short: as §1

[4] = biological target: T4, AURKB (Homo sapiens, UniProt Q96GD4); details: read-out: %Inhibition by 10 μM SPA70
T4 construct: purchased DiscoverX (Ambit Biosciences) KINOMEscan
In short: as §1

[5] = biological target: T5, LATS1 (Homo sapiens, UniProt O95835); details: read-out: %Inhibition by 10 μM SPA70
T5 construct: purchased DiscoverX (Ambit Biosciences) KINOMEscan
In short: as §1

[6] = biological target: T6, RPS6KA5(Kin.Dom.1-N-terminal) (Homo sapiens, UniProt O75582); details: read-out: %Inhibition by 10 μM SPA70
T6 construct: RPS6KA5(Kin.Dom.1-N-terminal); purchased DiscoverX (Ambit Biosciences) KINOMEscan
In short: as §1

[7] = biological target: T7, NDR2 (Homo sapiens, UniProt Q9Y2H1); details: read-out: %Inhibition by 10 μM SPA70
T7 construct: purchased DiscoverX (Ambit Biosciences) KINOMEscan
In short: as §1

[8] = biological target: T8, NEK11 (Homo sapiens, UniProt Q8NG66); details: read-out: %Inhibition by 10 μM SPA70
T8 construct: purchased DiscoverX (Ambit Biosciences) KINOMEscan
In short: as §1

[9] = biological target: T9, MKK7 (Homo sapiens, UniProt O14733)
T9 construct: purchased DiscoverX (Ambit Biosciences) KINOMEscan
In short: as §1

[10] = biological target: T10, YANK1 (Homo sapiens, UniProt Q8WU08); details: read-out: %Inhibition by 10 μM SPA70
T10 construct: purchased DiscoverX (Ambit Biosciences) KINOMEscan
In short: as §1

[11] = biological target: T11, CLK1 (Homo sapiens, UniProt P49759); details: read-out: %Inhibition by 10 μM SPA70
T11 construct: purchased DiscoverX (Ambit Biosciences) KINOMEscan
T11 sequence (P49759 whole entry): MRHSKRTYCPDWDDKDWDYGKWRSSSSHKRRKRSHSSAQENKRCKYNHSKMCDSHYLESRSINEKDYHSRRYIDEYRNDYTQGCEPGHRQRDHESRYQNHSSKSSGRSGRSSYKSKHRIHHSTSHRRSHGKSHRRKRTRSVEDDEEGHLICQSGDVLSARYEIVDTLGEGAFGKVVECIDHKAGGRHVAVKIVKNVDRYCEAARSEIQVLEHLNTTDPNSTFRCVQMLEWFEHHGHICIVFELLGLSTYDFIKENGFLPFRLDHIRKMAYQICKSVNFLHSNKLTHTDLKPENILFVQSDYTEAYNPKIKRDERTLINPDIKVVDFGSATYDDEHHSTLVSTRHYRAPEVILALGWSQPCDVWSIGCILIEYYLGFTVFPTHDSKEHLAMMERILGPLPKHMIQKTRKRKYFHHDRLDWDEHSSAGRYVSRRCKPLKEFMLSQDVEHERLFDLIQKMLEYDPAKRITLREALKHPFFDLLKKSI
In short: as §1

[12] = biological target: T12, PAK7 (Homo sapiens, UniProt Q9P286); details: read-out: %Inhibition by 10 μM SPA70
T12 construct: purchased DiscoverX (Ambit Biosciences) KINOMEscan
In short: as §1

[13] = biological target: T13, FLT3 (Homo sapiens, UniProt P36888); details: read-out: %Inhibition by 10 μM SPA70
T13 construct: purchased DiscoverX (Ambit Biosciences) KINOMEscan
In short: as §1

[14] = biological target: T14, SNRK (Homo sapiens, UniProt Q9NRH2); details: read-out: %Inhibition by 10 μM SPA70
T14 construct: purchased DiscoverX (Ambit Biosciences) KINOMEscan
In short: as §1

[15] = biological target: T15, MAP3K1 (Homo sapiens, UniProt Q13233); details: read-out: %Inhibition by 10 μM SPA70
T15 construct: purchased DiscoverX (Ambit Biosciences) KINOMEscan
In short: as §1

[16] = biological target: T16, MST4 (Homo sapiens, UniProt Q9P289); details: read-out: %Inhibition by 10 μM SPA70
T16 construct: purchased DiscoverX (Ambit Biosciences) KINOMEscan
In short: as §1

[17] = biological target: T17, CDK4-cyclinD3 (Homo sapiens, UniProt P11802); details: read-out: %Inhibition by 10 μM SPA70
T17 construct: purchased DiscoverX (Ambit Biosciences) KINOMEscan
T17 sequence (P11802 whole entry): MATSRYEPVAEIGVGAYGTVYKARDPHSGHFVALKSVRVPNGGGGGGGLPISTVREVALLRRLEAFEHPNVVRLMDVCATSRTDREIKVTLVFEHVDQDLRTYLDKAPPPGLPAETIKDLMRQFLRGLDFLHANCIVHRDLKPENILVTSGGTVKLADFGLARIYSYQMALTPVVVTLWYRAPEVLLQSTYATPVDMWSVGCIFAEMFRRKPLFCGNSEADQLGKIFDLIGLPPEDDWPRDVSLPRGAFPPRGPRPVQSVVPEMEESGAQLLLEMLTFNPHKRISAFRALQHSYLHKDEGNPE
T17 sequence (P30281 whole entry partner): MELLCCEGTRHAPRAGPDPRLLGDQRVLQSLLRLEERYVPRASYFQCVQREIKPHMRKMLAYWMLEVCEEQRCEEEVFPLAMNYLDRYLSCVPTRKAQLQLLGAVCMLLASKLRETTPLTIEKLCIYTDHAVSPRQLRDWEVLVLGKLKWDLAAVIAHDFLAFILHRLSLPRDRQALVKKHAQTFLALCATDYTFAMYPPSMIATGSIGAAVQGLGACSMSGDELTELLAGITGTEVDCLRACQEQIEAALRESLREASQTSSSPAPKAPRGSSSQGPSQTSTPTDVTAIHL
In short: as §1

[18] = biological target: T18, PKAC-alpha (Homo sapiens, UniProt P17612)
T18 construct: purchased DiscoverX (Ambit Biosciences) KINOMEscan
In short: as §1

[19] = biological target: T19, PKMYT1 (Homo sapiens, UniProt Q99640)
T19 construct: purchased DiscoverX (Ambit Biosciences) KINOMEscan
In short: as §1

[20] = biological target: T20, TYK2(JH1domain-catalytic) (Homo sapiens, UniProt P29597)
T20 construct: TYK2(JH1domain-catalytic); purchased DiscoverX (Ambit Biosciences) KINOMEscan
T20 sequence (P29597 871-1187 limits assumed): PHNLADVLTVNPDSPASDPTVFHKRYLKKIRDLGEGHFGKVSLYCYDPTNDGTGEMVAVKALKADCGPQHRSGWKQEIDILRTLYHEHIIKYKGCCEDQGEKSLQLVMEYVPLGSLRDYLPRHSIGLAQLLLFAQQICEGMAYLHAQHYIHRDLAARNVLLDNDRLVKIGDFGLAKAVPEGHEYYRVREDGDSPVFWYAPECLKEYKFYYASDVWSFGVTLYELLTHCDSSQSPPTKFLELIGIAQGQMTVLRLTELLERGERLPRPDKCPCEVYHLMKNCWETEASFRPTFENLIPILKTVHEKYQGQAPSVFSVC
In short: as §1

[21] = biological target: T21, TEC (Homo sapiens, UniProt P42680); details: read-out: %Inhibition by 10 μM SPA70
T21 construct: purchased DiscoverX (Ambit Biosciences) KINOMEscan
T21 sequence (P42680 whole entry): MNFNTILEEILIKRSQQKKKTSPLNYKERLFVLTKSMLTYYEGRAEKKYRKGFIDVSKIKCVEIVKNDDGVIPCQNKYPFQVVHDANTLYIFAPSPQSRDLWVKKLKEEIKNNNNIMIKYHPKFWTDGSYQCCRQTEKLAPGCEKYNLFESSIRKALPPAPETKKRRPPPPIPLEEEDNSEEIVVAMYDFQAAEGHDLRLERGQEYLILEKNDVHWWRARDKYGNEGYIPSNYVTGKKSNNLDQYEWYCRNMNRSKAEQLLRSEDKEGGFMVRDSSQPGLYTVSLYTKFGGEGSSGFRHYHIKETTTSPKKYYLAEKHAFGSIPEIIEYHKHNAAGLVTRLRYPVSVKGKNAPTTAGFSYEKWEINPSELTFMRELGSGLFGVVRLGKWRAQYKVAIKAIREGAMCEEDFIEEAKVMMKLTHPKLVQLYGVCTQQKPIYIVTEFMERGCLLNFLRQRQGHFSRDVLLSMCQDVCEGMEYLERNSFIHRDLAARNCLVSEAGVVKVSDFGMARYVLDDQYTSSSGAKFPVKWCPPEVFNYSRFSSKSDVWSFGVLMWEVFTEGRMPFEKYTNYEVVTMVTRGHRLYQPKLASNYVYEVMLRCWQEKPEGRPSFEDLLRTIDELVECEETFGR
In short: as §1

[22] = biological target: T22, CAMK4 (Homo sapiens, UniProt Q16566); details: read-out: %Inhibition by 10 μM SPA70
T22 construct: purchased DiscoverX (Ambit Biosciences) KINOMEscan
In short: as §1

[23] = biological target: T23, TAK1 (Homo sapiens, UniProt O43318); details: read-out: %Inhibition by 10 μM SPA70
T23 construct: purchased DiscoverX (Ambit Biosciences) KINOMEscan
In short: as §1

[24] = biological target: T24, PRKCD (Homo sapiens, UniProt Q05655); details: read-out: %Inhibition by 10 μM SPA70
T24 construct: purchased DiscoverX (Ambit Biosciences) KINOMEscan
In short: as §1

[25] = biological target: T25, PLK4 (Homo sapiens, UniProt O00444); details: read-out: %Inhibition by 10 μM SPA70
T25 construct: purchased DiscoverX (Ambit Biosciences) KINOMEscan
In short: as §1

[26] = biological target: T26, MYLK4 (Homo sapiens, UniProt Q86YV6); details: read-out: %Inhibition by 10 μM SPA70
T26 construct: purchased DiscoverX (Ambit Biosciences) KINOMEscan
In short: as §1

[27] = biological target: T27, SRPK3 (Homo sapiens, UniProt Q9UPE1); details: read-out: %Inhibition by 10 μM SPA70
T27 construct: purchased DiscoverX (Ambit Biosciences) KINOMEscan
In short: as §1

[28] = biological target: T28, MEK5 (Homo sapiens, UniProt Q13163); details: read-out: %Inhibition by 10 μM SPA70
T28 construct: purchased DiscoverX (Ambit Biosciences) KINOMEscan
In short: as §1

[29] = biological target: T29, AURKA (Homo sapiens, UniProt O14965); details: read-out: %Inhibition by 10 μM SPA70
T29 construct: purchased DiscoverX (Ambit Biosciences) KINOMEscan
In short: as §1

[30] = biological target: T30, p38-delta (Homo sapiens, UniProt O15264); details: read-out: %Inhibition by 10 μM SPA70
T30 construct: purchased DiscoverX (Ambit Biosciences) KINOMEscan
In short: as §1

[31] = biological target: T31, PKN2 (Homo sapiens, UniProt Q16513); details: read-out: %Inhibition by 10 μM SPA70
T31 construct: purchased DiscoverX (Ambit Biosciences) KINOMEscan
In short: as §1

[32] = biological target: T32, PRP4 (Homo sapiens, UniProt Q13523); details: read-out: %Inhibition by 10 μM SPA70
T32 construct: purchased DiscoverX (Ambit Biosciences) KINOMEscan
T32 sequence (Q13523 whole entry): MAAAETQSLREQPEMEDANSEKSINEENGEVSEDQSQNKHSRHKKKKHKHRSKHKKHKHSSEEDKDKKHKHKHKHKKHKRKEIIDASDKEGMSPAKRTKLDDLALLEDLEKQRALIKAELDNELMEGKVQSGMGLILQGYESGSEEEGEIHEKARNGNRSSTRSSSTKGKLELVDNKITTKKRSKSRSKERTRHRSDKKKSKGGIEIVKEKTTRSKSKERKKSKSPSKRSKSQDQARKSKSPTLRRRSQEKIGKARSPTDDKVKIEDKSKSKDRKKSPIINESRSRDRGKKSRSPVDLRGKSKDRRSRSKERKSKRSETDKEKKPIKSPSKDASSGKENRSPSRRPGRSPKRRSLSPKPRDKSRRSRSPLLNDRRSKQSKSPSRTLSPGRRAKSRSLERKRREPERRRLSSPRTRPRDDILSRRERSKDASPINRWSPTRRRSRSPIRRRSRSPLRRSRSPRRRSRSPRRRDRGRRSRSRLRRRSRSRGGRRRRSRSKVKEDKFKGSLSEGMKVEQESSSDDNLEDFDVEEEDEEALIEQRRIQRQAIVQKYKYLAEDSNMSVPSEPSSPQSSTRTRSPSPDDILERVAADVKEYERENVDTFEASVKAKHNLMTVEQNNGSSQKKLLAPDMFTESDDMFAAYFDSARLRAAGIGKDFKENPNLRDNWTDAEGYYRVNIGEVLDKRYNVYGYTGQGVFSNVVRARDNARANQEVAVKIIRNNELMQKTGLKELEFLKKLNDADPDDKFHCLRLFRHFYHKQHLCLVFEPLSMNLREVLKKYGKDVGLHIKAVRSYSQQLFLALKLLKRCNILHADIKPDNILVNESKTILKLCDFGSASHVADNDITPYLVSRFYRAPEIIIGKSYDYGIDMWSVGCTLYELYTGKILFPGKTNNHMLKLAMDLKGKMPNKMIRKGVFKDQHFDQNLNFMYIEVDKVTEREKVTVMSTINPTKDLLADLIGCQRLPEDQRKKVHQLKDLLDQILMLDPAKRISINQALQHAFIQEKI
In short: as §1

[33] = biological target: T33, MAP3K4 (Homo sapiens, UniProt Q9Y6R4); details: read-out: %Inhibition by 10 μM SPA70
T33 construct: purchased DiscoverX (Ambit Biosciences) KINOMEscan
In short: as §1

[34] = biological target: T34, PRKCQ (Homo sapiens, UniProt Q04759); details: read-out: %Inhibition by 10 μM SPA70
T34 construct: purchased DiscoverX (Ambit Biosciences) KINOMEscan
T34 sequence (Q04759 whole entry): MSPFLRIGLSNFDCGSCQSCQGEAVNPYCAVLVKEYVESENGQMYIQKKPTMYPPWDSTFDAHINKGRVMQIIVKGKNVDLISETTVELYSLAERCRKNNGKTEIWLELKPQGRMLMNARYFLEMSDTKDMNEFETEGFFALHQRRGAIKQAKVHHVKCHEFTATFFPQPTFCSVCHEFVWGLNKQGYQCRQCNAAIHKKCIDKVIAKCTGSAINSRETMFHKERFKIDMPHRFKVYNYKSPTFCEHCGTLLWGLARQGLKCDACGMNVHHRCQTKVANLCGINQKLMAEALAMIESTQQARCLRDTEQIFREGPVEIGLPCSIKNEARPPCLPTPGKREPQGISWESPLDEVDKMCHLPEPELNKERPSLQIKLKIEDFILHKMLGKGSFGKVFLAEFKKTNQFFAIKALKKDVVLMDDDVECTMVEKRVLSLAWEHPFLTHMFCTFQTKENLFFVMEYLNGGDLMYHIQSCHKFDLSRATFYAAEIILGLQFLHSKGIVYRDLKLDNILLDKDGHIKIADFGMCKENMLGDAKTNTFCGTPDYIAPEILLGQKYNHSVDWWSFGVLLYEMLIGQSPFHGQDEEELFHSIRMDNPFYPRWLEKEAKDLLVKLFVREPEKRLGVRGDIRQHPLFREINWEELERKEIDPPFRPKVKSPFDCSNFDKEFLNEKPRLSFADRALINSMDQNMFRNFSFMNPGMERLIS
In short: as §1

[35] = biological target: T35, DCAMKL2 (Homo sapiens, UniProt Q8N568); details: read-out: %Inhibition by 10 μM SPA70
T35 construct: purchased DiscoverX (Ambit Biosciences) KINOMEscan
In short: as §1

[36] = biological target: T36, PRKCE (Homo sapiens, UniProt Q02156); details: read-out: %Inhibition by 10 μM SPA70
T36 construct: purchased DiscoverX (Ambit Biosciences) KINOMEscan
In short: as §1

[37] = biological target: T37, CDK4-cyclinD1 (Homo sapiens, UniProt P11802); details: read-out: %Inhibition by 10 μM SPA70
T37 construct: purchased DiscoverX (Ambit Biosciences) KINOMEscan
T37 sequence (P11802 whole entry): as the sequence (P11802 whole entry) above
T37 sequence (P24385 whole entry partner): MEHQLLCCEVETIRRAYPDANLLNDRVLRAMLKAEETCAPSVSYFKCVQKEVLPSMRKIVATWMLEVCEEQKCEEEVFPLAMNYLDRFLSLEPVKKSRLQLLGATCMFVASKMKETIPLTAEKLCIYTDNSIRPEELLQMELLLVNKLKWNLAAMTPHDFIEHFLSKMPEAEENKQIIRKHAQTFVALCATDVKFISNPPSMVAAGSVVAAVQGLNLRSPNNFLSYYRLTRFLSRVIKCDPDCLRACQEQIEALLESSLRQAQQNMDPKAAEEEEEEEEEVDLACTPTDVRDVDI
In short: as §1

[38] = biological target: T38, AMPK-alpha1 (Homo sapiens, UniProt Q13131); details: read-out: %Inhibition by 10 μM SPA70
T38 construct: purchased DiscoverX (Ambit Biosciences) KINOMEscan
In short: as §1

[39] = biological target: T39, TYRO3 (Homo sapiens, UniProt Q06418); details: read-out: %Inhibition by 10 μM SPA70
T39 construct: purchased DiscoverX (Ambit Biosciences) KINOMEscan
In short: as §1

[40] = biological target: T40, MET (Homo sapiens, UniProt P08581)
T40 construct: purchased DiscoverX (Ambit Biosciences) KINOMEscan
In short: as §1

[41] = biological target: T41, STK39 (Homo sapiens, UniProt Q9UEW8); details: read-out: %Inhibition by 10 μM SPA70
T41 construct: purchased DiscoverX (Ambit Biosciences) KINOMEscan
In short: as §1

For `COc1ccc(OC)c(-n2nnc(S(=O)(=O)c3ccc(C(C)(C)C)cc3)c2C)c1` [SPA70], the “%Inhibition by 10 μM SPA70” value [1] was 43%, the inhibition at 10 µM [2] was 6% and the inhibition at 10 µM [3] was 2%. For the same molecule, the inhibition at 10 µM [4] was 8%, the inhibition at 10 µM [5] was 0% and the inhibition at 10 µM [6] was 14%. The inhibition at 10 µM [7] was 0%, the inhibition at 10 µM [8] was 34% and the “%Inhibition by 10 μM SPA70” value [9] was 0%. For the same molecule, the inhibition at 10 µM [10] was 0%, the inhibition at 10 µM [11] was 0% and the inhibition at 10 µM [12] was 26%. It also gave an inhibition at 10 µM [13] of 0%, an inhibition at 10 µM [14] of 0% and an inhibition at 10 µM [15] of 0%. For the same molecule, the inhibition at 10 µM [16] was 15%, the inhibition at 10 µM [17] was 19% and the “%Inhibition by 10 μM SPA70” value [18] was “not inhibited”. For the same molecule, the inhibition at 10 µM ([18]; read-out: %Inhibition by 10 μM SPA70) was 0%, the “%Inhibition by 10 μM SPA70” value [19] was 38% and the “%Inhibition by 10 μM SPA70” value [20] was 0%. It also gave an inhibition at 10 µM [21] of 0%, an inhibition at 10 µM [22] of 0% and an inhibition at 10 µM [23] of 0%. For the same molecule, the inhibition at 10 µM [24] was 5%, the inhibition at 10 µM [25] was 9% and the inhibition at 10 µM [26] was 0%. For the same molecule, the inhibition at 10 µM [27] was 0%, the inhibition at 10 µM [28] was 8% and the inhibition at 10 µM [29] was 0%. For the same molecule, the inhibition at 10 µM [30] was 21%, the inhibition at 10 µM [31] was 0% and the inhibition at 10 µM [32] was 0%. It also gave an inhibition at 10 µM [33] of 0%, an inhibition at 10 µM [34] of 4% and an inhibition at 10 µM [35] of 0%. The inhibition at 10 µM [36] was 0%, the inhibition at 10 µM [37] was 20% and the inhibition at 10 µM [38] was 0%. The inhibition at 10 µM [39] was 0%, the “%Inhibition by 10 μM SPA70” value [40] was 0% and the inhibition at 10 µM [41] was 7%.
